{
  "source": "patent US8058437B2",
  "about": "“(Pyrroloquinoxalinyl) pyrazinecarbohydrazide-oxalic acid co-crystal for treatment of cancer and other diseases” (Novelix Pharmaceuticals, Inc., priority 2008, dated 2011)",
  "assay": "Pharmacokinetic experiments in rats (IV, oral suspension, oral solution)",
  "assay_type": "in vivo",
  "details": "male, rat, plasma; for bioavailability: adjusted for dose, read-out: Bioavailability",
  "protocol": "The oral suspension formulation was prepared by suspending the test article in 5% PEG-200/95% of a 0.5% solution of methylcellulose. The concentration of the test article was such that a dosing volume of 10 mL/kg delivered the intended dose level. The oral solution formulations of NVX-144 and NVX-412 were prepared by dissolving the test article in 10% by volume dimethyl acetamide, followed by 60% by volume PEG-400, and then adding slowly a solution of 30% Captisol® in 50 mM lactic acid to provide the remaining 30% of volume. The concentration of the test article was such that a dosing volume of 10 mL/kg delivered the intended dose level. The IV formulation of NVX-412 was prepared by dissolving the test article in 10% by volume dimethyl acetamide, followed by 10% by volume PEG-400, and then adding slowly a solution of 10% Captisol® in 50 mM lactic acid to provide the remaining 80% of volume. The concentration of the test articles was such that a dosing volume of 2.5 mL/kg delivered the intended dose level. The doses administered were based on the body weight of each animal taken shortly before dosing. The formulations were used immediately after preparation.\nA total of 15 rats were assigned to the study. Five groups of three male rats each comprised the study. Each group was treated once by oral gavage or intravenous injection via the tail vein as specified in Table 3 below.\nThe animals were fasted overnight prior to dosing and the feed returned approximately 2 hours post-dosing. The dose for each animal was based on the most recent body weight. Oral doses were administered by gavage. Animals received 10 mL/kg per single oral dose. Intravenous doses were administered by tail vein injection. The dose for each animal was based on the most recent body weight. Animals were dosed at 2.5 mL/kg per single intravenous dose.\nBlood was collected from the animals in Groups 1 through 5 for pharmacokinetic analysis. Approximately 0.3 mL of blood was collected in potassium EDTA tubes via the orbital plexus at four time points (30 minutes, 1 hour, 4 hours, and 8 hours post-dose) from each rat treated by the oral route, and the blood samples were processed to prepare plasma. Blood was collected at four time points (5 minutes, 30 minutes, 1 hour, and 2 hours post-dose) from each rat treated by the intravenous route, and the blood samples were processed to prepare plasma. Animals were terminated (without necropsy) following their final sample collection.\nThe whole blood samples were centrifuged (˜1500×g) for a minimum of 10 minutes in a refrigerated centrifuge (set at ˜5° C.). Plasma was prepared and transferred within 30 minutes of blood collection/centrifugation to appropriately labeled tubes. The tubes were then frozen and stored in the dark at ≦−70° C. until analysis. The plasma samples were analyzed by LC-MS/MS to determine the plasma concentrations of NVX-144 and NVX-412. Pharmacokinetic analysis of the plasma concentration data was conducted using non-compartmental analysis with WinNonlin Version 4.1.",
  "key": {"[1]": {"details": "iv, 5 mg/kg, IV 5 mg/kg, Mean of 3"}, "[2]": {"details": "iv, 5 mg/kg, IV 5 mg/kg, individual animals"}, "[3]": {"details": "oral, 20 mg/kg, Group 5, PO-Solution 20 mg/kg, Mean"}, "[4]": {"details": "po, 20 mg/kg, Group 3, PO-Suspension 20 mg/kg, individual animals"}, "[5]": {"details": "po, 20 mg/kg, Group 5, PO-Solution 20 mg/kg, Mean N=3"}},
  "note": "Read-outs that look alike come from different tables or passages of the source.",
  "data": [
    {"compound": "O=C(NNc1nc2cc(F)ccc2n2cccc12)c1cnccn1.O=C(O)C(=O)O", "note": "[NVX-412, N′-(7-fluoropyrrolo[1,2a]quinoxalin-4-yl)pyrazine-2-carbohydrazide oxalic acid co-crystal]", "values": [
      {"measurement": "concentration at 0.083 h", "setting": "[1]", "result": 1840, "unit": "ng/mL"},
      {"measurement": "concentration at 0.083 h", "setting": "[2]", "result": 1810, "unit": "ng/mL"},
      {"measurement": "concentration at 0.5 h", "setting": "iv, 5 mg/kg, IV 5 mg/kg, 0.5 h, Mean of 3", "result": 477, "unit": "ng/mL"},
      {"measurement": "concentration at 0.5 h", "setting": "iv, 5 mg/kg, IV 5 mg/kg, 0.5 h, individual animals", "result": 488, "unit": "ng/mL"},
      {"measurement": "concentration at 1 h", "setting": "iv, 5 mg/kg, IV 5 mg/kg, 1 h, Mean of 3", "result": 273, "unit": "ng/mL"},
      {"measurement": "concentration at 1 h", "setting": "iv, 5 mg/kg, IV 5 mg/kg, 1 h, individual animals", "result": 288, "unit": "ng/mL"},
      {"measurement": "concentration at 2 h", "setting": "[1]", "result": 165, "unit": "ng/mL"},
      {"measurement": "concentration at 2 h", "setting": "[2]", "result": 167, "unit": "ng/mL"},
      {"measurement": "AUC", "setting": "[1]", "result": 1070, "unit": "ng·h/mL"},
      {"measurement": "AUC(0-inf)", "setting": "[1]", "result": 1310, "unit": "ng·h/mL"},
      {"measurement": "clearance", "setting": "[1]", "result": 63.4, "unit": "mL/min/kg"},
      {"measurement": "Cmax", "setting": "iv, 5 mg/kg, IV 5 mg/kg, Mean of 3, read-out: Cmax", "result": 1840, "unit": "ng/mL"},
      {"measurement": "half-life", "setting": "iv, 5 mg/kg, IV 5 mg/kg, Mean of 3, read-out: T ½ (converted)", "result": 1, "unit": "h"},
      {"measurement": "Tmax", "setting": "iv, 5 mg/kg, IV 5 mg/kg, Mean of 3, read-out: Tmax", "result": 0.083, "unit": "h"},
      {"measurement": "Vd", "setting": "iv, 5 mg/kg, IV 5 mg/kg, Mean of 3, read-out: Vss", "result": 3.98, "unit": "L/kg"},
      {"measurement": "AUC", "setting": "[2]", "result": 1070, "unit": "ng·h/mL"},
      {"measurement": "AUC(0-inf)", "setting": "[2]", "result": 1320, "unit": "ng·h/mL"},
      {"measurement": "clearance", "setting": "[2]", "result": 63.3, "unit": "mL/min/kg"},
      {"measurement": "Cmax", "setting": "iv, 5 mg/kg, IV 5 mg/kg, individual animals, read-out: Cmax", "result": 1810, "unit": "ng/mL"},
      {"measurement": "half-life", "setting": "iv, 5 mg/kg, IV 5 mg/kg, individual animals, read-out: T ½ (converted)", "result": 1.01, "unit": "h"},
      {"measurement": "Tmax", "setting": "iv, 5 mg/kg, IV 5 mg/kg, individual animals, read-out: Tmax", "result": 0.08, "unit": "h"},
      {"measurement": "Vd", "setting": "iv, 5 mg/kg, IV 5 mg/kg, individual animals, read-out: Vss", "result": 3.96, "unit": "L/kg"},
      {"measurement": "half-life", "setting": "iv, 5 mg/kg, administered intravenously, range over animals, read-out: terminal plasma half-life", "result": "0.93 to 1.15", "unit": "h"},
      {"measurement": "concentration at 0.5 h", "setting": "oral, 20 mg/kg, Group 3, PO-Suspension 20 mg/kg, 0.5 hr, Mean", "result": 487, "unit": "ng/mL"},
      {"measurement": "concentration at 0.5 h", "setting": "oral, 20 mg/kg, Group 3, PO-Suspension 20 mg/kg, 0.5 hr, individual animals", "result": 499, "unit": "ng/mL"},
      {"measurement": "concentration at 1 h", "setting": "oral, 20 mg/kg, Group 3, PO-Suspension 20 mg/kg, 1 hr, Mean", "result": 525, "unit": "ng/mL"},
      {"measurement": "concentration at 1 h", "setting": "oral, 20 mg/kg, Group 3, PO-Suspension 20 mg/kg, 1 hr, individual animals", "result": 525, "unit": "ng/mL"},
      {"measurement": "concentration at 4 h", "setting": "oral, 20 mg/kg, Group 3, PO-Suspension 20 mg/kg, Mean", "result": 257, "unit": "ng/mL"},
      {"measurement": "concentration at 4 h", "setting": "oral, 20 mg/kg, Group 3, PO-Suspension 20 mg/kg, individual animals", "result": 341, "unit": "ng/mL"},
      {"measurement": "concentration at 8 h", "setting": "oral, 20 mg/kg, Group 3, PO-Suspension 20 mg/kg, Mean, only 2 replicates available", "result": 9.27, "unit": "ng/mL"},
      {"measurement": "concentration at 0.5 h", "setting": "oral, 20 mg/kg, Group 5, PO-Solution 20 mg/kg, 0.5 hr, Mean", "result": 626, "unit": "ng/mL"},
      {"measurement": "concentration at 0.5 h", "setting": "oral, 20 mg/kg, Group 5, PO-Solution 20 mg/kg, 0.5 hr, individual animals", "result": 732, "unit": "ng/mL"},
      {"measurement": "concentration at 1 h", "setting": "oral, 20 mg/kg, Group 5, PO-Solution 20 mg/kg, 1 hr, Mean", "result": 601, "unit": "ng/mL"},
      {"measurement": "concentration at 1 h", "setting": "oral, 20 mg/kg, Group 5, PO-Solution 20 mg/kg, 1 hr, individual animals", "result": 628, "unit": "ng/mL"},
      {"measurement": "concentration at 4 h", "setting": "[3]", "result": 243, "unit": "ng/mL"},
      {"measurement": "concentration at 4 h", "setting": "oral, 20 mg/kg, Group 5, PO-Solution 20 mg/kg, individual animals", "result": 259, "unit": "ng/mL"},
      {"measurement": "concentration at 8 h", "setting": "[3]", "result": 16.2, "unit": "ng/mL"},
      {"measurement": "AUC(0-inf)", "setting": "po, 20 mg/kg, Group 3, PO-Suspension 20 mg/kg, Mean N=2", "result": 2310, "unit": "ng·h/mL"},
      {"measurement": "half-life", "setting": "po, 20 mg/kg, Group 3, PO-Suspension 20 mg/kg, Mean N=2, read-out: T ½ (converted)", "result": 1.2, "unit": "h"},
      {"measurement": "bioavailability", "setting": "po, 20 mg/kg, Group 3, PO-Suspension 20 mg/kg, Mean N=2, versus mean IV AUCINF", "result": 43.9, "unit": "%"},
      {"measurement": "AUC", "setting": "po, 20 mg/kg, Group 3, PO-Suspension 20 mg/kg, Mean N=3", "result": 2070, "unit": "ng·h/mL"},
      {"measurement": "Cmax", "setting": "po, 20 mg/kg, Group 3, PO-Suspension 20 mg/kg, Mean N=3, read-out: Cmax", "result": 525, "unit": "ng/mL"},
      {"measurement": "Tmax", "setting": "po, 20 mg/kg, Group 3, PO-Suspension 20 mg/kg, Mean N=3, read-out: Tmax", "result": 1, "unit": "h"},
      {"measurement": "AUC", "setting": "[4]", "result": 2390, "unit": "ng·h/mL"},
      {"measurement": "AUC(0-inf)", "setting": "[4]", "result": 2410, "unit": "ng·h/mL"},
      {"measurement": "Cmax", "setting": "po, 20 mg/kg, Group 3, PO-Suspension 20 mg/kg, individual animals, read-out: Cmax", "result": 525, "unit": "ng/mL"},
      {"measurement": "half-life", "setting": "po, 20 mg/kg, Group 3, PO-Suspension 20 mg/kg, individual animals, read-out: T ½ (converted)", "result": 1.28, "unit": "h"},
      {"measurement": "Tmax", "setting": "po, 20 mg/kg, Group 3, PO-Suspension 20 mg/kg, individual animals, read-out: Tmax", "result": 1, "unit": "h"},
      {"measurement": "bioavailability", "setting": "po, 20 mg/kg, Group 3, PO-Suspension 20 mg/kg, individual animals, versus mean IV AUCINF", "result": 45.9, "unit": "%"},
      {"measurement": "AUC", "setting": "[5]", "result": 2250, "unit": "ng·h/mL"},
      {"measurement": "AUC(0-inf)", "setting": "[5]", "result": 2290, "unit": "ng·h/mL"},
      {"measurement": "Cmax", "setting": "po, 20 mg/kg, Group 5, PO-Solution 20 mg/kg, Mean N=3, read-out: Cmax", "result": 643, "unit": "ng/mL"},
      {"measurement": "half-life", "setting": "po, 20 mg/kg, Group 5, PO-Solution 20 mg/kg, Mean N=3, read-out: T ½ (converted)", "result": 1.4, "unit": "h"},
      {"measurement": "Tmax", "setting": "po, 20 mg/kg, Group 5, PO-Solution 20 mg/kg, Mean N=3, read-out: Tmax", "result": 0.67, "unit": "h"},
      {"measurement": "bioavailability", "setting": "po, 20 mg/kg, Group 5, PO-Solution 20 mg/kg, Mean N=3, versus mean IV AUCINF", "result": 43.5, "unit": "%"}
    ]}
  ]
}
